Measured values from ChEMBL document CHEMBL4002646, “Antimalarial Properties of Simplified Kalihinol Analogues” (ACS Med Chem Lett, 2017).

What was measured:
[1] = test system: Plasmodium falciparum; test: Antimalarial activity against chloroquine-resistant Plasmodium falciparum W2 infected in human RBC after 72 hrs; format: functional; settings: W2, 72 h
[2] = test system: Plasmodium falciparum; test: Antimalarial activity against chloroquine-resistant Plasmodium falciparum Dd2 infected in human O+ erythrocytes after 72 hrs by SYBR green fluorescence-based method; format: functional, cell-based
[3] = test system: Plasmodium falciparum; test: Antimalarial activity against Plasmodium falciparum 3D7 infected in human O+ erythrocytes after 72 hrs by SYBR green fluorescence-based method; format: functional, cell-based
[4] = test system: Plasmodium falciparum; test: Antimalarial activity against chloroquine-resistant Plasmodium falciparum FCR-3 ATCC 30932 infected in human RBC after 72 hrs by Geimsa staining based microscopic method; format: functional; settings: FCR-3/Gambia ATCC 30932, 72 h
[5] = Plasmodium falciparum, Dd2, 72 h
[6] = Plasmodium falciparum, 3D7, 72 h

SMILES | IC50 [2, 5] [nM] | IC50 [3, 6] [nM] | also measured
C[C@@H]1C[C@@H]2C[C@H](C)[C@H]3CC[C@](C)(C#N)[C@H]4CC[C@@H]([C@@H]2[C@H]34)[C@]1(C)C#N | 1.6 |  | IC50 [1]: 13 nM
CC(C)[C@H]1CC[C@](C)(C#N)[C@H]2CC[C@@](C)(C#N)[C@H](O)[C@H]12 (racemic) |  |  | IC50 [2]: 46 nM; IC50 [3]: 27 nM
CC(C)[C@H]1CC[C@@](C)(C#N)[C@H]2CC[C@@](C)(O)[C@H](C#N)[C@H]12 | 31 | 2.9 | 
CC(C)[C@H]1CC[C@](C)(C#N)[C@H]2CC[C@@](C)(O)[C@H](C#N)[C@H]12 | 16 | 12 | 
CC1=C[C@H]2[C@H](CC1)[C@@](C)(C#N)CC[C@@H]2[C@@]1(C)CC[C@](C#N)(C(C)C)O1 | 123 | 175 | 
CC(C)(O)C[C@@H]1[C@@]2(C)CCCC(C)(C)[C@@H]2CC[C@]1(C)C#N | 416 | 244 | 
CC(C)(Cl)[C@@H]1CC[C@](C)([C@H]2CC[C@](C)(C#N)[C@H]3CC[C@@](C)(O)[C@H](C#N)[C@@H]32)O1 | 4.6 | 8.4 | 
CC1=C[C@@]2(O)[C@@H](CC1)[C@@](C)(C#N)CC[C@@H]2[C@@]1(C)CC[C@@H](C(C)(C)C#N)O1 |  |  | IC50 [4]: 80 nM
CC1(C)O[C@@](C)([C@H]2CC[C@](C)(C#N)[C@H]3CC[C@@](C)(O)[C@H](C#N)[C@@H]32)CC[C@@H]1Cl |  |  | IC50 [4]: 1.2 nM
C[C@]1(C#N)CC[C@H](CCO)[C@H]2[C@@H](C#N)[C@](C)(O)CC[C@@H]21 (racemic) | 205 | 302 | 
CC1=C[C@@H]2[C@@H](C(C)C)CC[C@@](C)(C#N)[C@@H]2CC1 (racemic) | 45 | 180 | 
CC(C)(C#N)C[C@@H]1[C@@]2(C)CCCC(C)(C)[C@@H]2CC[C@]1(C)C#N | 1.6 | 1.9 | 
CC1=C[C@@H]2[C@@H](C(C)C)CC[C@](C)(C#N)[C@H]2CC1 (racemic) | 247 | 705 | 
CC(C)[C@H]1CC[C@](C)(C#N)[C@H]2CC[C@@](C)(C#N)[C@H](O)[C@H]12 |  | 15 | IC50 [2]: 17 nM
CC(C)[C@H]1CC[C@@](C)(C#N)[C@H]2CC[C@@](C)(C#N)[C@H](O)[C@H]12 | 958 | 1150 | 
